# Where “and” joins values, the source holds several entries; their conditions need not be identical. Identical values can stand only once.
# Tests used:
# Format in all cases: cell-based
# [1] = system: Streptococcus mutans; assay: Inhibitory effect of AMP-33 on Streptococcus mutans; conditions: 5 and 10 μg/mL, 16 hours
# Experimental: (1) Streptococcus mutans was cultured to the logarithmic phase, then 5 mL of the bacterial solution was centrifuged at 5,000 g for 10 minutes. The organisms were resuspended in Brain-Heart Infusion (BHI) medium, and the concentration of the bacterial solution was adjusted to approximately 2×10^5 CFU/mL using pre-configured McClure's turbidimetric tubes.
# (2) Streptococcus mutans was cultured in a microtiter plate (96 wells), and 50 μL of different AMP33 peptides were added (at concentrations of 5 and 10 μg/mL). Then, 100 μL of diluted Streptococcus mutans bacterial fluid was added, followed by 50 μL of BHI medium, resulting in a final concentration of 1×10^5 CFU/mL.
# (3) A blank control was provided with equal amounts of medium solution and bacterial solution as that of the experimental group, with at least 3 replicates for each treatment group.
# (4) The 96-well plate was placed in a bacterial incubator at 37° C. and incubated at 150 rpm for 16 hours.
# [2] = system: Escherichia coli (ATCC: 25922); assay: Inhibitory effect of AMP-33 on Escherichia coli (viability, OD 630 nm); conditions: for Viability of Escherichia coli: 24 hours, repeated experiments
# Experimental: (1) Staphylococcus aureus and Escherichia coli were inoculated into LB liquid medium and cultured overnight under aerobic conditions at 37° C. and […] on a shaker.
# (2) 200 μL of LB liquid culture medium and a predetermined concentration of peptide AMP-33 were added to a 96-deep-well plate. Then, 10 μL of the Staphylococcus aureus/Escherichia coli solution was inoculated (mixed well before inoculation).
# (§1) (3) After incubating at […] for 24 hours on a shaking table at 37° C., the turbidity of the bacterial solution was observed. A volume of 100 μL of the solution was taken, and the OD at 630 nm was measured using an enzyme-linked immunosorbent assay (ELISA) reader (after multiple blows and mixing).
# (§2) [formula] • OD Measurement: OD value of the test peptide. • ODneg: OD value with no bacterial inoculation, containing only […] medium. • ODpos: OD value with bacterial inoculation and without inhibitors.
# [3] = system: HaCat (human immortalized epidermal cells) cells; assay: Cytotoxic assay (CCK-8) in HaCat cells; conditions: 60 hours
# Experimental: Preparation of Cell Suspension: HaCat (human immortalized epidermal cells) cells were counted and inoculated into 96-well plates. 100 μL of cell suspension was added to each well, corresponding to a density of 5×10^4 cells per well, with three replicates for each sample. The cells were cultured in a 37° C. incubator for 4 hours until they were attached to the plate. Peptides from the examples, as well as FK13 and HPA3NT3, were then added at concentrations of 80 μg/mL, 32 μg/mL, and 8 μg/mL. The cells were incubated at 37° C. for 60 hours. Afterward, 10 μL of CCK-8 solution was added, and the cells were cultured for an additional 2 hours. The absorbance of the peptides at 450 nm was measured using a dual-wavelength detector, with a detection wavelength of 450-490 nm and a reference wavelength of 600-650 nm.
# [4] = system: Candida albicans (ATCC: 14053); assay: Inhibitory effect of AMP-33 on Candida albicans (viability, OD 630 nm); conditions: 8 μg/mL, 28 hours; repeated experiments
# Experimental: (1) Candida albicans was inoculated into YM liquid medium and cultured overnight under aerobic conditions at 28° C. and […] on a shaker.
# (2) 200 μL of YM liquid culture medium and a predetermined concentration of peptide AMP-33 were added to a 96-deep-well plate. Then, 10 μL of the Candida albicans solution was inoculated (mixed well before inoculation).
# as §1, with “28” for “24”, “28°” for “37°”
# as §2
# [5] = system: Propionibacterium acnes (ATCC: 6919); assay: Inhibitory effect of AMP-33 on Propionibacterium acnes (viability, OD 630 nm); set-up: Viability of Propionibacterium acnes: unit: %; conditions: for Viability of Propionibacterium acnes: 48 hours, repeated experiments
# Experimental: (1) Propionibacterium acnes was inoculated into Wilkins Chalgren liquid medium and cultured overnight under anaerobic conditions at 37° C. (Labiophy HL-B fully automated anaerobic workstation).
# (2) 200 μL of the Wilkins Chalgren liquid culture medium and a predetermined concentration of the peptide AMP-33 were added to a 96-deep-well plate. Then, 10 μL of Propionibacterium acnes was inoculated (mix well before inoculation).
# (3) After 48 hours of cultivation under anaerobic conditions at 37° C., the turbidity of the bacterial solution was observed. Then, 100 μL of the solution was taken, and the OD at 630 nm was measured using the enzyme-linked immunosorbent assay (ELISA) reading plate (after multiple blows and mixing).
# as §2
# [6] = system: Mouse macrophage RAW264.7 cells; assay: RT-qPCR of inflammation markers in LPS-stimulated RAW264.7 cells; conditions: LPS 10 ng/ml, 24 hours; repeated experiments
# Experimental: (1) Mouse macrophage RAW264.7 cells were cultured in DMEM supplemented with 10% fetal bovine serum (FBS) and 1% penicillin and streptomycin (P/S) at 37° C. in a 5% CO2 incubator.
# (2) 5×10^4 mouse-derived RAW264.7 macrophages were placed in 12-well cell culture plates and cultured for 24 hours. Then, 20 μL of PBS (negative control), Dexamethasone (positive control), and the test peptide were added to the wells for incubation for 2 hours. Afterward, 10 ng/ml of lipopolysaccharide (LPS) was mixed with RAW264.7 cells and incubated for 24 hours.
# (4) The cells were collected, and total RNA was isolated and extracted, reverse transcribed, and subjected to RT-qPCR to detect inflammation markers, including TNF-α, IL-1β, IL-6/10, CCL2, IFN-γ, iNOS, and GAPDH.
# 3. After treating RAW264.7 cells with AMP-33, RT-qPCR was used to detect the levels of IL-6 and IL-1ß mRNA.
substance,measurement,setting,value
Example 2: LSKWLKKLGKLLAG (designated as AMP33),inhibition rate of Streptococcus mutans,[1],approximately 100%
same,Viability of Escherichia coli,[2]; 1 μg/mL,110.11 and 91.93 and 82.94
same,Viability of Escherichia coli,[2]; 2 μg/mL,89.71 and 90.4 and 98.53
same,Viability of Escherichia coli,[2]; 4 μg/mL,86.48 and 70.83 and 70.35
same,Viability of Escherichia coli,[2]; 8 μg/mL,78.87 and 50.46 and 73.2
same,Viability of Escherichia coli,[2]; 25 μg/mL,74.99 and 38.97 and 51.39
same,inhibition of Escherichia coli,[2]; 25 ppm,over 99%
same,Maximum cytotoxicity-free concentration,[3],80 µg/mL
same,Viability of Candida albicans,[4],53.84 and 70.73 and 66.17
same,Viability of Propionibacterium acnes,[5]; 1 μg/mL,94.82 and 113.75 and 94.03
same,Viability of Propionibacterium acnes,[5]; 2 μg/mL,79.37 and 65.48 and 68.87
same,inhibition of Propionibacterium acnes,[5]; 4 ppm,over 90%
same,CCL-2 mRNA level,[6],0.51 and 0.52 and 0.58
same,COX-2 mRNA level,[6],0.71 and 0.58 and 1.16
same,IL-1β mRNA level,[6],0.40 and 0.45 and 0.77
same,IL-6 mRNA level,[6],0.96 and 0.49 and 0.95
same,IL-10 mRNA level,[6],1.80 and 2.50 and 1.32
